Measured values published in ChEMBL document CHEMBL3045037, “Insecticidal and Neuroblocking Activities of Acetamiprid and Related Compounds” (J Pestic Sci, 2003).

Key:
Periplaneta americana [1] = assay: Insecticidal activity against adult male Periplaneta americana (American cockroach) dosed through injection into abdomen assessed as mortality measured 24 hr post dose in presence of 50 ug metabolic inhibitor PB; assay type: functional
[2] = Lipophilicity, log P of the compound by HPLC based shake flask method; assay type: physicochemical
Periplaneta americana [3] = assay: Insecticidal activity against adult male Periplaneta americana (American cockroach) dosed through injection into abdomen assessed as mortality measured 24 hr post dose in presence of 50 ug metabolic inhibitor PB and 50 ug NIA; assay type: functional
[4] = test system: Abdominal central nerve cord; assay: Neuroblocking activity in adult male Periplaneta americana (American cockroach) abdominal central nerve cords assessed as neuroblocking concentration measured at 22 to 25 degC; assay type: functional
Periplaneta americana [5] = assay: Insecticidal activity against adult male Periplaneta americana (American cockroach) dosed through injection into abdomen assessed as mortality measured 24 hr post dose; assay type: functional

SMILES: O=[N+]([O-])/N=C1\NCCN1Cc1ccc(Cl)nc1 [IMIDACLOPRID]
- log(1/MLD) (Periplaneta americana [1]): 9.26
- logP [2]: 0.6
- log(1/MLD) (Periplaneta americana [3]): 10.15
- log(1/BC) [4]: 5.64
- log(1/MLD) (Periplaneta americana [5]): 8.96

SMILES: CC(C)C/C(=N\C#N)N(C)Cc1ccc(Cl)nc1
- log(1/MLD) (Periplaneta americana [1]): <6.3
- logP [2]: 1.75
- log(1/MLD) (Periplaneta americana [3]): 6.9
- log(1/BC) [4]: <3.3
- log(1/MLD) (Periplaneta americana [5]): <6.3

SMILES: CN(Cc1ccc(Cl)nc1)/C(Cc1ccccc1)=N/C#N
- log(1/MLD) (Periplaneta americana [1]): <6.58
- logP [2]: 2.13
- log(1/MLD) (Periplaneta americana [3]): 6.78
- log(1/BC) [4]: <3.58
- log(1/MLD) (Periplaneta americana [5]): <6.58

SMILES: CCCN(Cc1ccc(Cl)nc1)/C(C)=N/C#N
- log(1/MLD) (Periplaneta americana [1]): 7.44
- logP [2]: 1.62
- log(1/MLD) (Periplaneta americana [3]): 8.34
- log(1/BC) [4]: 5.14
- log(1/MLD) (Periplaneta americana [5]): 7.04

SMILES: CCCCCN(Cc1ccc(Cl)nc1)/C(C)=N/C#N
- logP [2]: 2.37
- log(1/MLD) (Periplaneta americana [3]): 7.8
- log(1/BC) [4]: 5.01
- log(1/MLD) (Periplaneta americana [5]): <6.9

SMILES: CCCCC/C(=N\C#N)N(C)Cc1ccc(Cl)nc1
- log(1/MLD) (Periplaneta americana [1]): 6.2
- logP [2]: 2.3
- log(1/MLD) (Periplaneta americana [3]): 6.8
- log(1/BC) [4]: <3.2
- log(1/MLD) (Periplaneta americana [5]): <6.2

SMILES: CCC/C(=N\C#N)N(C)Cc1ccc(Cl)nc1
- log(1/MLD) (Periplaneta americana [1]): 6.68
- logP [2]: 1.55
- log(1/MLD) (Periplaneta americana [3]): 7.77
- log(1/BC) [4]: 3.78
- log(1/MLD) (Periplaneta americana [5]): <6.58

SMILES: C/C(=N\C#N)N(C)Cc1ccc(Cl)nc1 [ACETAMIPRID]
- log(1/MLD) (Periplaneta americana [1]): 8.58
- logP [2]: 0.83
- log(1/MLD) (Periplaneta americana [3]): 9.68
- log(1/BC) [4]: 6.19
- log(1/MLD) (Periplaneta americana [5]): 8.28

SMILES: CN(Cc1ccc(Cl)nc1)/C(=N/C#N)c1ccccc1
- log(1/MLD) (Periplaneta americana [1]): 6.48
- logP [2]: 1.86
- log(1/MLD) (Periplaneta americana [3]): 6.99
- log(1/BC) [4]: <3.39
- log(1/MLD) (Periplaneta americana [5]): <6.39

SMILES: C/C(=N\C#N)N(Cc1ccccc1)Cc1ccc(Cl)nc1
- logP [2]: 2.11
- log(1/MLD) (Periplaneta americana [3]): 7.6
- log(1/BC) [4]: 4.46
- log(1/MLD) (Periplaneta americana [5]): 6.7

SMILES: CCCCN(Cc1ccc(Cl)nc1)/C(C)=N/C#N
- logP [2]: 2.13
- log(1/MLD) (Periplaneta americana [3]): 7.71
- log(1/BC) [4]: 4.48
- log(1/MLD) (Periplaneta americana [5]): <7.01

SMILES: CC/C(=N\C#N)N(C)Cc1ccc(Cl)nc1
- log(1/MLD) (Periplaneta americana [1]): 7.64
- logP [2]: 1.12
- log(1/MLD) (Periplaneta americana [3]): 8.54
- log(1/BC) [4]: 5.23
- log(1/MLD) (Periplaneta americana [5]): 7.24

SMILES: CCCC/C(=N\C#N)N(C)Cc1ccc(Cl)nc1
- log(1/MLD) (Periplaneta americana [1]): <6.37
- logP [2]: 1.87
- log(1/MLD) (Periplaneta americana [3]): 6.77
- log(1/BC) [4]: <3.37
- log(1/MLD) (Periplaneta americana [5]): <6.37

SMILES: C=CCN(Cc1ccc(Cl)nc1)/C(C)=N/C#N
- logP [2]: 1.56
- log(1/MLD) (Periplaneta americana [3]): 8.07
- log(1/BC) [4]: 5.46
- log(1/MLD) (Periplaneta americana [5]): 7.07

SMILES: C/C(=N\C#N)N(Cc1ccc(Cl)nc1)C(C)C
- logP [2]: 1.46
- log(1/MLD) (Periplaneta americana [3]): 7.67
- log(1/BC) [4]: 4.47
- log(1/MLD) (Periplaneta americana [5]): 6.78

SMILES: C/C(=N\C#N)NCc1ccc(Cl)nc1
- log(1/MLD) (Periplaneta americana [1]): 6.7
- logP [2]: 1.07
- log(1/MLD) (Periplaneta americana [3]): 7.5
- log(1/BC) [4]: 3.7
- log(1/MLD) (Periplaneta americana [5]): 6.4

SMILES: CC(C)/C(=N\C#N)N(C)Cc1ccc(Cl)nc1
- log(1/MLD) (Periplaneta americana [1]): 6.74
- logP [2]: 1.39
- log(1/MLD) (Periplaneta americana [3]): 7.44
- log(1/BC) [4]: 3.44
- log(1/MLD) (Periplaneta americana [5]): 6.44

SMILES: CCN(Cc1ccc(Cl)nc1)/C(C)=N/C#N
- log(1/MLD) (Periplaneta americana [1]): 7.63
- logP [2]: 1.19
- log(1/MLD) (Periplaneta americana [3]): 9.24
- log(1/BC) [4]: 5.87
- log(1/MLD) (Periplaneta americana [5]): 7.14
